Reference: patent publication US20100144683A1, “METHODS FOR GENERATING MAMMALIAN MODELS OF ATOPIC DISEASES, AND SCREENING FOR THEIR TREATMENT” (ASSOCIATION POUR LA RECHERCHE A L'IGBMC (ARI), priority 2006, published 2010)
“Also recorded” adds a separate entry of the source.

Experiments:
TSLP [1] = assay: TSLP RNA level (Q-PCR) in skin and organs after topical application of NR agonists; assay type: in vivo, mouse
Protocol: Four nmoles of ligands dissolved in ethanol were topically applied to whole ears of 6-8-week-old female CD1 wildtype (WT) mice for 4 consecutive days (D1 to D4), and TSLP RNA levels were determined on day 5.
(§1) 1α,25-(OH)2D3, or MC903 and ethanol (vehicle) were applied to WT mouse right and left ears, respectively. Two shaved areas (1 cm^2 each) of dorsal skin were also treated with MC903 or ethanol.

TSLP [2] = assay: TSLP immunohistochemistry on ear and dorsal skin sections; assay type: in vivo, mouse; details: MC903-treated ear and dorsal skin; D4
From the text: The white arrowhead points to autofluorescent erythrocytes, and white arrows point to the dermal/epidermal junction. (Scale bar, 50 μm).

[3] = test system: OVA-induced asthma mouse model; assay: Ovalbumin (OVA)-induced asthma mouse model with ear topical MC903; assay type: in vivo; details: MC903 1.125 nmole on each ear every other day, day 0 to 21, day 22
Protocol: An experimental ovalbumin (OVA)-induced asthma mouse model was used. Mice were intraperitoneally injected with 50 μg OVA adsorbed on 2 mg aluminium hydroxide (Alum) on days 0 and 7, and were then challenged on days 18, 19, 20 and 21 by intranasal instillations of 10 μg OVA. As controls, mice were intraperitoneally injected with Alum, and receive intranasal instillations of saline. These mice were topically treated with either ethanol (as a control) or MC903 (1.125 nmole) on each ear every other day from day 0 to day 21 to generate an ear AD. Assessment of respiratory function, collection of bronchoalveolar lavage (BAL) and lung were performed on day 22. […] Aerosolized saline was used as control.

TSLP [4] = assay: Serum TSLP levels after topical application; assay type: in vivo, mouse; details: MC903 topical; D2-D4, undetectable at D0
Protocol: as §1

[5] = test system: ears of CD1 wildtype (WT) mice; assay: AD-like phenotype upon long-term ear topical treatment (appearance, histology, IHC); assay type: in vivo, mouse
From the text: White arrows point to the dermal/epidermal junction. FIGS. 2a and b show the ear appearance at day 17 after ethanol and MC903 treatment, respectively. FIGS. 2c and d show hematoxylin and eosin-stained (HE) ear sections of ethanol- and MC903-treated mice at day 17, respectively. Eosinophil-selective cytoplasmic red staining is pointed by arrows in the inset of (d). FIG. 2 u show hematoxylin and eosin-stained (HE) ear sections of ethanol- and 1α,25(OH)2D3 treated mice every second day, at a dose of 0.25 nmole, at day 18 (D18). FIGS. 2 e to n show the result of IHC performed on ear sections from ethanol- or MC903-treated mice at D17, with antibodies against GR1 (e and f), CD3 (g and h), CD4 (i and j), CD8 (k and l) and CD11c (m and n). Yellow color corresponds to staining of antibodies, whereas blue corresponds to DAPI staining of nuclei. FIGS. 2 o and p show the Toluidin blue (TB)-staining of ear sections. Red arrows point to one of the mast cells with intense blue color in the dermis.

RXR/VDR heterodimers = molecular target: T1, RXR/VDR heterodimers (Mus musculus, UniProt P48281); assay: MC903 topical treatment of RXRαβep-/- mice, TSLP RNA (Q-PCR); assay type: in vivo; details: D4, versus RXRαβ CT
T1 construct: from tissue; host or cells: mouse ear skin (epidermal keratinocytes), topical treatment in vivo
T1 sequence (P48281 1-422): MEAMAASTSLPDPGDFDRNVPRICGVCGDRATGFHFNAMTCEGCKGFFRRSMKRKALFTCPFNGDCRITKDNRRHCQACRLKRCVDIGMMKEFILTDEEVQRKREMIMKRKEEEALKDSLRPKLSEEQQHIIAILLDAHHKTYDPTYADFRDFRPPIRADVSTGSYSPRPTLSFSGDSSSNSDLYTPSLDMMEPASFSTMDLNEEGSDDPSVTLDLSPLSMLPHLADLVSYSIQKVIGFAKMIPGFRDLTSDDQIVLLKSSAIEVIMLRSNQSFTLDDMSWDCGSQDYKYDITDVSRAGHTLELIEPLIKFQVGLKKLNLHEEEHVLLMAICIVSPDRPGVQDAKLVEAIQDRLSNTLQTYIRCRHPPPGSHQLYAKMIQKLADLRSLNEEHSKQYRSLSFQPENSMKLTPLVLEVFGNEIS
From the text: To examine whether the effect of MC903 was transduced through RXR/VDR heterodimers, ears of RXRαβ^ep−/− mice (tamoxifen-treated K14-Cre-ERT2^(tg/0)/RXRαβ^L2/L2/RXRβ^L2/L2; LI et al., 2005, abovementioned), as well as their control littermates (RXRαβ CT), were topically-treated with MC903.

TSLP [6] = assay: TSLP RNA level (Q-PCR) in skin and organs after topical application of NR agonists; assay type: in vivo, mouse; details: increasing doses (MC903: 0.4, 1 or 4 nmoles per ear)
cytokine RNA = assay: Cytokine RNA levels (Q-PCR) in treated ears; assay type: in vivo, mouse; details: MC903 4 nmoles daily on ears; D16
eosinophils = assay: Blood and tissue eosinophilia; assay type: in vivo, mouse; details: MC903-treated mice
From the text: FIG. 2 s show the hematoxylin and eosin-stained sections of ear draining lymph node and liver of ethanol- and MC903-treated mice at D17. Yellow arrows point to three of many eosinophils (red cytoplasmic staining) in sections of lymph node and liver of MC903-treated mice. (Scale bars, 50 μm).

CYP24A1 = CYP24A1 RNA level (Q-PCR) in MC903-treated ear; assay type: in vivo, mouse; details: MC903 topically every day; D2-D4
Protocol: as §1

[7] = Calcemia and overall health upon topical application; assay type: in vivo; details: MC903 4 nmoles daily or 1α,25(OH)2D3 0.25 nmole every second day on ears, 16 days
Protocol: 1α,25-(OH)2D3, or MC903 and ethanol (vehicle) were applied to WT mouse right and left ears, respectively. Two shaved areas (1 cm^2 each) of dorsal skin were also treated with MC903 or ethanol. […]

VDR = assay: MC903 topical treatment of VDR control, VDRep-/- and VDR-/- mice; assay type: in vivo, mouse
From the text: To investigate whether the MC903-induced TSLP expression and appearance of an AD-like skin inflammation were mediated through VDR, MC903 was topically applied on ears of “floxed” VDR control (CT) mice (VDR^L2/L2 mice, in which both VDR alleles bear LoxP sites) and of their VDR^ep−/− littermates [K14-Cre^(tg/0)/VDR^L2/L2 mice in which the VDR alleles are selectively ablated in keratinocytes and which were obtained by crossing)K14-Cre^(tg/0) transgenic mice (LI et al., Development, vol. 128, p: 675-688, 2001) with floxed VDR^L2/L2 mice (our unpublished data)].
The FIGS. 3 a and b show the appearance of MC903-treated ears of VDR control (CT) (a) and VDR^ep−/− mice (b) at D17. White arrows in (a) points to lesioned skin.
The FIGS. 3 c and d show Hematoxylin and eosin-stained ear sections. Yellow arrows in inset of (c) point to three of many eosinophils (red cytoplasmic staining) in MC903-treated CT skin. Black arrows point to the dermal/epidermal junction. hf, hair follicle; u, utriculi (resulting from hair follicle degeneration in VDR^ep−/− mice). (Scale bar, 50 μm).

serum IgE and IgG = assay: Serum IgE and IgG levels (ELISA); assay type: in vivo, mouse; details: MC903 topically for 16 days on ears

Substance: 26,27-cyclo-22-ene-1α,24S-dihydroxyvitamin D3 [MC903]
- TSLP RNA in treated dorsal skin (TSLP [1]; MC903 on shaved dorsal skin (1 cm^2), D2-D4): increased
- TSLP RNA levels in treated right ear (TSLP [1]; MC903 topically every day on right ear of WT mice, D2, D3, D4, ethanol on left ear): increased in right ears, and further increased on D3 and D4
- TSLP transcripts in other organs (lung, thymus, salivary gland, tongue, colon, spleen, lymph node, liver) (TSLP [1]; MC903 topically on ears, D5): no increase
- TSLP expression by immunohistochemistry in epidermis (TSLP [2]): readily detected
- BAL cell numbers ([3]; OVA model): higher BAL cell numbers
- airway epithelium hypertrophy (lung sections) ([3]; OVA model): increased hypertrophy in airway epithelium
- lung inflammatory infiltration (lung sections) ([3]; OVA model): higher perivascular and peribronchial lung inflammatory infiltrations; also recorded: enhanced airway inflammation
- airway hyperresponsiveness (AHR), whole-body plethysmography ([3]; OVA sensitized and challenged): increased airway hyperresponsiveness
- serum TSLP levels (TSLP [4]): increased
- ear appearance ([5]; MC903 4 nmoles daily or 1α,25(OH)2D3 0.25 nmole every second day, from D5, D17): reddening and swelling, that worsened with time; also recorded: red, scaly, swollen and crusted
- ear histology (hematoxylin/eosin) ([5]; MC903 4 nmoles daily, D17, 1α,25-(OH)2D3 0.25 nmole every other day, D18): epidermal hyperplasia and a heavy dermal cell infiltrate
- CD11c+ dermal dendritic cells (IHC) ([5]; MC903-treated ears, D17): large increase
- GR1-positive cells in dermis (IHC) ([5]; MC903-treated ears, D17): large number of positive cells
- T lymphocytes (CD3+) in dermis (IHC) ([5]; MC903-treated ears, D17): Numerous
- increase of mast cells in the dermis ([5]; MC903-treated ears, D17, Toluidin blue staining): 4 fold
- induction of TSLP in RXRαβep-/- skin (RXR/VDR heterodimers): severely reduced
- dose dependence of TSLP transcripts (TSLP [6]): dose-dependent increase
- TSLP transcripts in treated ears, long-term (cytokine RNA): markedly increased
- Th2-type cytokine transcripts (IL-4, IL-5, IL-13, IL-31, IL10 and IL-6) (cytokine RNA): significantly increased
- expression of Th1-type cytokine IFN-γ (cytokine RNA): enhanced
- expression of Th1-type cytokine TNF-β (cytokine RNA): unchanged
- eosinophils in ear-draining lymph nodes, liver and spleen (eosinophils; D16): increased number of eosinophils
- blood eosinophils (differential blood cell counts) (eosinophils; ethanol-treated mice 204±134): 693±220 cells/μl
- CYP24A1 transcripts in treated ear (CYP24A1): increased
- hypercalcemia, overall health, weight loss [7]: No hypercalcemia or overall health impairment and weight loss
- skin inflammation in VDR-/- mice (VDR): no AD-like skin inflammation
- TSLP expression (Q-PCR) in skin of VDR CT mice (VDR; D4): strongly induced
- TSLP expression (Q-PCR) in skin of VDR-/- mice (VDR; D4): not at all
- TSLP expression (Q-PCR) in skin of VDRep-/- mutants (VDR; D4): weakly increased
- ear inflammation in VDR CT mice (VDR; D17): AD-like inflammation was obvious
- ear inflammation in VDRep-/- mice (VDR; D17): did not show any sign of inflammation
- serum IgE and IgG levels (serum IgE and IgG): increased
